The text below walks through data of patent publication US20180064821A1, “SITE SPECIFIC CURCUMIN-POLYMER MOLECULAR COMPLEXES AND METHODS OF TREATING COLON DISEASES AND INFLAMMATION” (priority 2016, published 2018).

Where two headings read alike, the source gives them in different places.

In data set [1] the test system is HT29 human colo-rectal cancer cells. Put plainly: MTT cell viability assay, HT29. In kind it is cell-based. Conditions: 48 h incubation. On the procedure: (§1) Following 48 h of incubation, 0.5 mg/ml MTT solution was added to each well, and the cells were incubated for further 4 h at 37° C. After 4 h, 150 μl of DMSO was added to each well and incubated for 1 h at 37° C. to dissolve the formazan crystals. The absorbance was then measured at 570 nm with a reference wavelength of 650 nm using UV-visible spectrophotometer. The results are represented in terms of percentage inhibition of cell proliferation compared to that of vehicle control. The cellular viability was assessed as a percentage of the control by using the following equation.

Data set [2] is described as follows: Aqueous stability of curcumin complexes. The conditions noted are these: 37° C. The class given is physicochemical. As to the method:
At different time intervals (0, 1, 2, 4, 6, 8, 12, 16, 20, 24 h), the samples were collected, centrifuged (20,000 g) and the supernatant was passed through […] filter.

Data set [3] relates to HT29 colo-rectal cancer cells. Put plainly: pH dependent cellular uptake by flow cytometry, HT29. The class given is cell-based, human. On the procedure: (§2) Briefly, 2×10^5 cells were seeded in 24 well-plates and allowed to adhere for 24 h. […] After 4 h, the cells were washed with PBS, trypsinized, fixed using 4% paraformaldehyde (PFA) and stored at 4° C. until further analysis using flow cytometer. […] Sample acquisition was performed using BD Biosciences FACS LSR Fortessa and data analyzed using FlowJo software (FlowJo LLC).

Data set [4] relates to HCT116 colo-rectal cancer cells. Nature of the data set: pH dependent cellular uptake by flow cytometry, HCT116. The class given is cell-based, human. As to the method: as §2
Data set [5] concerns HCT116 human colo-rectal cancer cells. Put plainly: MTT cell viability assay, HCT116. Conditions: 48 h incubation. The class given is cell-based. As to the method: as §1

For `COc1cc(/C=C/C(=O)CC(=O)/C=C/c2ccc(O)c(OC)c2)ccc1O` [Curcumin, (1E,6E)-1,7-bis(4-hydroxy-3-methoxyphenyl)-1,6-heptadiene-3,5-dione], the concentration for half-maximal inhibition (IC50) was above 80 µM in data set [1] (listed as Unformulated curcumin at pH 7.0, read-out: IC50 (mean ± SD) In HT29 Cells); 41.8 ± 1.86 µM in data set [1] (Homo sapiens, HT-29, 48 h, read-out: IC50 (mean ± SD) In HT29 Cells); above 80 µM in data set [5] (listed as Unformulated curcumin at pH 7.0, read-out: IC50 (mean ± SD) In HCT116 Cells); 18.4 ± 1.94 µM in data set [5] (listed as curcumin in DMSO, read-out: IC50 (mean ± SD) In HCT116 Cells). The initial curcumin present in data set [2] (SIF (pH 6.7-6.9) and pH 7.0 buffer with 10% methanol, 24 h) is on record as around 10%; in data set [2] (aqueous buffers with 10% methanol, within 2 h), around 30%. In addition, the “Cellular uptake of curcumin, Mean fluorescence intensity” value in data set [3] (pH 5.5, 4 h) was found to be 2704 ± 221; in data set [3] (pH 7.0, 4 h) it was 2429 ± 247; in data set [4] (pH 5.5, 4 h), 2543 ± 72; in data set [4] (pH 7.0, 4 h) it was 3514 ± 975.
